Data published in the supplement of paper PMC11208160.

test: recombinant UMI read abundance after kanamycin selection (control-corrected) (log10(CPM+1)); higher = more efficient recombination; extreme values may be limits of the assay; sequences stand for … in AGTGCAGAGAAAATCGGCCAGTTTTCTCTGCCTGCAGTCCGCATGCCGTGGGACCCCTTGGGTTCTAACCTGTTGCCTAGATTTATGCAGCGGACTGCCTTTCTCCCAAAGTGATAAACCGG…AGGTTGGTTTCACT; site = the 11-nt donor
Outline: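 Under IPTG (0.07 mM) plus kanamycin, or without selection, Escherichia coli carrying a UMI-tagged donor and donor-binding-loop pair library and a target plasmid for the IS621 bridge recombinase were plated in two replicates. Recombinant UMIs were PCR-amplified across the donor–target junction and sequenced. Counts were converted to CPM, averaged over replicates, scaled by control-derived factors and reported as log10(CPM+1).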
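Also: IS621 bridge recombinase in Escherichia coli cells against a fixed T5 target plasmid.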

Sequence	recombinant UMI read abundance (log10)
CCGAAGCCATGGACCGGTTTTCCCGGTAATCCGTATTTGGG (site ACGAAGCCTCC)	0.0168
CCGAAGCCATGGACCGGTTTTCCCGGTAATCCGTATTTGGG (site CCGAAGCCTCC)	0.0077
CCGAAGCCATGGACCGGTTTTCCCGGTAATCCGTATTTGGG (site GCGAAGCCTCC)	0.0226
CCGAAGCCATGGACCGGTTTTCCCGGTAATCCGTATTTGGG (site TCGAAGCCTCC)	0.0139
CCGAGTTCATGGACCGGTTTTCCCGGTAATCCGTATTTGTT (site CCGAGTTCTAA)	0.501
CCGCCCGCATGGACCGGTTTTCCCGGTAATCCGTATTTGTA (site CCGCCCGCTTA)	1.02
CCGGAACCATGGACCGGTTTTCCCGGTAATCCGTATTTGAT (site CAGGAACCTAT)	0
CCGGAACCATGGACCGGTTTTCCCGGTAATCCGTATTTGAT (site CCGGAACCTAT)	0
CCGGAACCATGGACCGGTTTTCCCGGTAATCCGTATTTGAT (site CGGGAACCTAT)	0
CCGGAACCATGGACCGGTTTTCCCGGTAATCCGTATTTGAT (site CTGGAACCTAT)	0.00208
CCGGGACCATGGACCGGTTTTCCCGGTAATCCGTATTTGAG (site CCGGGACCTCT)	0
CCGGGCCCATGGACCGGTTTTCCCGGTAATCCGTATTTGTA (site CCGGGCCCTTA)	0.0269
CCGTAATCATGGACCGGTTTTCCCGGTAATCCGTATTTGCG (site CCGTAATCTCG)	1.7
CCGTATACATGGACCGGTTTTCCCGGTAATCCGTATTTGAT (site CCGTATACTAT)	0.449
CCGTCATCATGGACCGGTTTTCCCGGTAATCCGTATTTGAT (site CCGTCATCTAT)	0.00671
CCGTCTGCATGGACCGGTTTTCCCGGTAATCCGTATTTGCT (site CCGTCTGCTAG)	0.241
CCGTGTACATGGACCGGTTTTCCCGGTAATCCGTATTTGCT (site CCGTATACTAG)	0.0403
CCGTGTACATGGACCGGTTTTCCCGGTAATCCGTATTTGCT (site CCGTCTACTAG)	0.00869
CCGTGTACATGGACCGGTTTTCCCGGTAATCCGTATTTGCT (site CCGTGTACTAG)	0.439

Sequence	recombinant UMI read abundance (log10)
CCGTGTACATGGACCGGTTTTCCCGGTAATCCGTATTTGCT (site CCGTTTACTAG)	0
CCGTGTGCATGGACCGGTTTTCCCGGTAATCCGTATTTGAC (site CCGTGTGCTGT)	1
CCGTTAACATGGACCGGTTTTCCCGGTAATCCGTATTTGTG (site CCGTTAACTCA)	0.0455
CCGTTAACATGGACCGGTTTTCCCGGTAATCCGTATTTGTG (site CCGTTACCTCA)	0.0226
CCGTTAACATGGACCGGTTTTCCCGGTAATCCGTATTTGTG (site CCGTTAGCTCA)	0.182
CCGTTAACATGGACCGGTTTTCCCGGTAATCCGTATTTGTG (site CCGTTATCTCA)	0.00955
CCGTTAGCATGGACCGGTTTTCCCGGTAATCCGTATTTGGG (site CCGTTAGCTCA)	0.0109
CCGTTAGCATGGACCGGTTTTCCCGGTAATCCGTATTTGGG (site CCGTTAGCTCC)	0.00956
CCGTTAGCATGGACCGGTTTTCCCGGTAATCCGTATTTGGG (site CCGTTAGCTCG)	0
CCGTTAGCATGGACCGGTTTTCCCGGTAATCCGTATTTGGG (site CCGTTAGCTCT)	0
CCGTTTACATGGACCGGTTTTCCCGGTAATCCGTATTTGCT (site ACGTTTACTAG)	0
CCGTTTACATGGACCGGTTTTCCCGGTAATCCGTATTTGCT (site CAGTTTACTAG)	0
CCGTTTACATGGACCGGTTTTCCCGGTAATCCGTATTTGCT (site CCATTTACTAG)	0
CCGTTTACATGGACCGGTTTTCCCGGTAATCCGTATTTGCT (site CCCTTTACTAG)	0
CCGTTTACATGGACCGGTTTTCCCGGTAATCCGTATTTGCT (site CCGATTACTAG)	0
CCGTTTACATGGACCGGTTTTCCCGGTAATCCGTATTTGCT (site CCGCTTACTAG)	0
CCGTTTACATGGACCGGTTTTCCCGGTAATCCGTATTTGCT (site CCGGTTACTAG)	0
CCGTTTACATGGACCGGTTTTCCCGGTAATCCGTATTTGCT (site CCGTATACTAG)	0
